Where a name gives a salt, the structure may show the parent alone.
Assays:
[1] = Example 6: photographic speed and fog, 365 nm exposure, emulsion T-2; conditions: for effect on dye desensitization: red dyed emulsion (D-II), 365 nm
Protocol: (§1) For photographic evaluation, each of the coating strips was exposed for 0.1 sec to a 365 nm emission line of a Hg lamp filtered through a Kodak Wratten filter number 18A and a step wedge ranging in density from 0 to 4 density units in 0.2 density steps. The exposed film strips were developed for 6 min in Kodak Rapid X-ray Developer (KRX). S365, relative sensitivity at 365 nm, was evaluated at a density of 0.2 units above fog.
(§2) An AgBrI tabular silver halide emulsion (Emulsion T-2) was prepared containing 4.05% total I distributed such that the central portion of the emulsion grains contained 1.5% I and the perimeter area contained substantially higher I, as described by Chang et. al., U.S. Pat. No. 5,314,793. […] This emulsion was precipitated using deionized gelatin. The emulsion was sulfur sensitized by adding 8.5×10^-6 mole 1,3-dicarboxymethyl-1,3-dimethyl-2-thiourea /mole Ag at 40° C.; the temperature was then raised to 60° C. at a rate of 5° C./3 min and the emulsions held for 20 min before cooling to 40° C. The chemically sensitized emulsion was then used to prepare coatings containing the fragmentable two-electron donor compounds. All of the experimental coating variations in Table III contained the hydroxybenzene 2,4-disulfocatechol (HB3) at a concentration of 13 mmole/ mole Ag, added to the melt before the addition of any further addenda. Where present, the blue sensitizing dye D-I or the red sensitizing dye D-II were added from methanol solution to the emulsion at 40° C. after the chemical sensitization and disulfocatechol addition. The fragmentable two-electron donor compounds were added to the emulsion at 40° C. and the coatings were prepared and tested as described in Example 1, except that the additional gelatin used to prepare the coatings described in Table III was deionized gelatin.
The chemically sensitized AgErI tabular emulsion T-2 as described in Example 3 was used to prepare the experimental coating variations listed in Table VI, comparing fragmentable electron donating compounds PMT-1 and PMT-2 that contain a phenylmercaptotetrazole as the silver halide adsorbing group. For some of the experimental variations listed in Table VI the red sensitizing dye D-II was added from methanol solution to the emulsion at 40° C. after the chemical sensitization. The fragmentable electron donating compounds were then added to the emulsion and coatings prepared and tested for sensitivity at 365 nm and for spectral sensitivity as described in Example 3.

[2] = Example 1: photographic speed and fog, 365 nm exposure, emulsion T-1; conditions: undyed; for S365: control=100
Protocol: This chemically sensitized emulsion was then used to prepare the experimental coating variations indicated in Table I. All of the experimental coating variations in Table I contained the hydroxybenzene 2,4-disulfocatechol (HB3) at a concentration of 13 mmole/mole Ag, added to the melt before the addition of any further addenda. The fragmentable electron donor compounds as indicated in Table I were added from an aqueous potassium bromide solution, or from a methanol solution, before additional water, gelatin, and surfactant were added to the emulsion melts.
as §1

[3] = Example 9: photographic speed and fog, 365 nm exposure, red dyed emulsion T-2; conditions: for Fog / S365: dye II 0.86 x10^-3; for S365: undyed control=100, dyed control 62; for 365 nm sensitivity of dyed emulsion: dye D-II
Protocol: as §1, §2
The sulfur sensitized AgBrI tabular emulsion T-2 as described in Example 3 was used to prepare coatings of the fragmentable two-electron donors S-15, S-14, S-13, and S-11, as described in Table IX. All of the experimental coating variations in Table IX contained the hydroxybenzene, 2,4-disulfocatechcol (HB3) at a concentration of 13 mmole/mole Ag, added to the melt before any further addenda. Where present, the red sensitizing dye D-II was added from methanol solution to the emulsion at 40° C. after the chemical sensitization and disulfocatechol addition. The fragmentable two-electron donor compounds were then added to the emulsion and coatings prepared and tested as described in Example I, except that the additional gelatin used to prepare the coatings described in Table IX was deionized gelatin.

[4] = Example 4: photographic speed and fog, 365 nm exposure, blue dyed emulsion T-2; parameters: Fog: unit not given here; conditions: for Fog / S365: dye I 0.91 x10^-3; for S365: dyed control=100; for fog change: Table IV
Protocol: as §1, §2
The chemically sensitized AgBrI tabular emulsion T-2 as described in Example 3 was used to prepare the experimental coating variations listed in Table IV, comparing various structurally related fragmentable two-electron donating compounds varying in first oxidation potential E1. The blue sensitizing dye D-I was added from methanol solution to the emulsion at 40° C. after the chemical sensitization. The fragmentable two-electron donating compounds were then added to the emulsion and coatings prepared and tested as described in Example 3.

SMILES	Fog ([3]; 0.007 x10^-3 mol/mol Ag)	S365 ([3]; 0.007 x10^-3 mol/mol Ag)	Fog ([3]; 0.022 x10^-3 mol/mol Ag)	S365 ([3]; 0.022 x10^-3 mol/mol Ag)	365 nm sensitivity of dyed emulsion [3]	Fog ([4]; 0.22 x10^-3 mole/mole Ag)	S365 ([4]; 0.22 x10^-3 mole/mole Ag)	Fog ([4]; 0.44 x10^-3 mole/mole Ag)	S365 ([4]; 0.44 x10^-3 mole/mole Ag)	Fog ([4]; 0.88 x10^-3 mole/mole Ag)	S365 ([4]; 0.88 x10^-3 mole/mole Ag)	other results
CC(C(=O)O)N(CCC(=O)Nc1cccc(-n2nnnc2S)c1)c1ccccc1 (stereo not drawn) [PMT-2]												Fog ([1]; 0.0005 x10^-3 mole/mole Ag, dye II 0.86 x10^-3): 0.13; S365 ([1]; 0.0005 x10^-3 mole/mole Ag, dye II 0.86 x10^-3, dyed control 73): 102; Fog ([1]; 0.0016 x10^-3 mole/mole Ag, dye II 0.86 x10^-3): 0.23; S365 ([1]; 0.0016 x10^-3 mole/mole Ag, dye II 0.86 x10^-3, dyed control 73): 118; Fog ([1]; 0.005 x10^-3 mole/mole Ag, dye II 0.86 x10^-3): 0.40; S365 ([1]; 0.005 x10^-3 mole/mole Ag, dye II 0.86 x10^-3, dyed control 73): 118; Fog ([1]; 0.005 x10^-3 mole/mole Ag, no dye): 0.06; S365 ([1]; 0.005 x10^-3 mole/mole Ag, no dye, control=100): 191; Fog ([1]; 0.016 x10^-3 mole/mole Ag, no dye): 0.08; S365 ([1]; 0.016 x10^-3 mole/mole Ag, no dye, control=100): 186; effect on dye desensitization [1]: effective in ameliorating dye desensitization
CCSCCN(c1ccc(C)cc1)C(CC(=O)O)C(=O)O (stereo not drawn) [Compound S-8]												Fog ([2]; 0.022 x10^-3 mole/mole Ag): 0.08; S365 ([2]; 0.022 x10^-3 mole/mole Ag): 126; Fog ([2]; 0.07 x10^-3 mole/mole Ag): 0.13; S365 ([2]; 0.07 x10^-3 mole/mole Ag): 135
Cc1ccc(N(CCC(=O)Nc2cccc(-n3nnnc3S)c2)C(C)C(=O)O)cc1 (stereo not drawn) [PMT-1]												Fog ([1]; 0.0006 x10^-3 mole/mole Ag, dye II 0.86 x10^-3): 0.14; S365 ([1]; 0.0006 x10^-3 mole/mole Ag, dye II 0.86 x10^-3, dyed control 73): 97; Fog ([1]; 0.0017 x10^-3 mole/mole Ag, dye II 0.86 x10^-3): 0.27; S365 ([1]; 0.0017 x10^-3 mole/mole Ag, dye II 0.86 x10^-3, dyed control 73): 115; Fog ([1]; 0.0055 x10^-3 mole/mole Ag, dye II 0.86 x10^-3): 0.53; S365 ([1]; 0.0055 x10^-3 mole/mole Ag, dye II 0.86 x10^-3, dyed control 73): 102; Fog ([1]; 0.006 x10^-3 mole/mole Ag, no dye): 0.08; S365 ([1]; 0.006 x10^-3 mole/mole Ag, no dye, control=100): 195; Fog ([1]; 0.017 x10^-3 mole/mole Ag, no dye): 0.13; S365 ([1]; 0.017 x10^-3 mole/mole Ag, no dye, control=100): 191; effect on dye desensitization [1]: effective in ameliorating dye desensitization
CCSCCN(c1ccc(C)cc1)[C@@H](C)C(=O)[O-].[Na+] [Compound S-3, N-(4-Methylphenyl)-N-(2-ethylthio-ethyl)alanine sodium salt]												Fog ([2]; 0.011 x10^-3 mole/mole Ag): 0.05; S365 ([2]; 0.011 x10^-3 mole/mole Ag): 118; Fog ([2]; 0.022 x10^-3 mole/mole Ag): 0.08; S365 ([2]; 0.022 x10^-3 mole/mole Ag): 132; Fog ([2]; 0.044 x10^-3 mole/mole Ag): 0.22; S365 ([2]; 0.044 x10^-3 mole/mole Ag): 129
CCSCCN(c1ccccc1)C(CC(=O)O)C(=O)O (stereo not drawn) [Compound S-14]	0.11	89	0.14	97	restored to that of the undyed emulsion							
CCSCCN(c1ccccc1)C(C)C(=O)O (stereo not drawn) [Compound S-9, N-(Phenyl)-N-(2-thioethyl-ethyl)alanine sodium salt]						0.21	129	0.41	102	0.63		fog change [4]: modest increases in fog
CCSCCN(c1ccc(C(=O)O)cc1)C(C)C(=O)O (stereo not drawn) [Compound S-11]	0.12	87	0.13	100	restored to that of the undyed emulsion	0.05	145	0.06	145	0.07	145	
CCSCCN(c1cccc(C(N)=O)c1)C(C)C(=O)O (stereo not drawn) [Compound S-13]	0.13	95	0.20	102	restored to that of the undyed emulsion	0.10	151	0.13	151	0.14	166	
CCSCCN(c1ccc(Cl)cc1)C(C)C(=O)O (stereo not drawn) [Compound S-12, N-(4-Chlorophenyl)-N-(2-thioethyl-ethyl)alanine sodium salt]						0.18	145	0.21	141	0.29	138	fog change [4]: modest increases in fog
